Measurements reported in patent US20150141411A1, “SUBSTITUTED 3,4-DIHYDRO-2H-PYRIDO[1,2-A]PYRAZINE-1,6-DIONE DERIVATIVES USEFUL FOR THE TREATMENT OF (INTER ALIA) ALZHEIMER'S DISEASE” (Janssen Pharmaceuticals, Inc., priority 2012, published 2015).

What was measured:
[1] = biological target: T1, γ-secretase (Homo sapiens, UniProt P49768); test: Screening for γ-secretase-modulating activity: Aβ42 in supernatant of SKNBE2 cells carrying hAPP 695 wild type (Alphalisa); assay type: cell-based; details: SKNBE2 human neuroblastoma cells carrying hAPP 695 wild type, overnight incubation, Aβ42 in cell supernatant
T1 construct: endogenous in cells; host or cells: SKNBE2 human neuroblastoma cells (carrying hAPP 695 wild type as substrate)
Outline: (§1)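 SKNBE2 neuroblastoma cells expressing wild-type hAPP 695 plated at 10^4 cells/well in Ultraculture with test compound, incubated overnight at 37° C. Aβ42 (C-terminal/N-terminal antibody pair) and Aβtotal (N-terminal/4G8 pair) in supernatant quantified by AlphaLISA. IC50 from 4-parameter fit of percent of compound-free control.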

[2] = biological target: T1, γ-secretase; test: Screening for γ-secretase-modulating activity: Aβtotal in supernatant of SKNBE2 cells carrying hAPP 695 wild type (Alphalisa); assay type: cell-based; details: SKNBE2 human neuroblastoma cells carrying hAPP 695 wild type, overnight incubation, Aβtotal in cell supernatant
Outline: as §1

Row | SMILES | IC50 [1] [µM] | IC50 [2] [µM] | melting point [°C]
1 | Cc1cn(-c2ccc3n(c2=O)CCN(CCOCc2ccc(Cl)cc2)C3=O)cn1 [compound 27] | 0.59 | > 10 | 168
2 | Cc1cn(-c2ccc3n(c2=O)C[C@@H](C)N(CCc2cc(Cl)ccc2Cl)C3=O)cn1 [compound 230] | 0.21 | > 10 | 192
3 | Cc1cn(-c2ccc3n(c2=O)C[C@@H](C)N(CC2(c4ccc(Cl)cc4)CC2)C3=O)cn1 [compound 28] | 0.28 | > 10 | 157.4
4 | Cc1cn(-c2ccc3n(c2=O)C[C@@H](C)N(Cc2ccc(C(F)(F)F)cc2)C3=O)cn1 [compound 43] | 0.62 | > 10 | 164.9
5 | Cc1cn(-c2ccc3n(c2=O)C[C@@H](C)N(Cc2cn(C(C)C)c4cc(Br)ccc24)C3=O)cn1 [compound 200] | 0.02 | > 10 | 181
6 | Cc1cn(-c2ccc3n(c2=O)C[C@@H](C)N(CCc2cccc(C(F)(F)F)c2C)C3=O)cn1 [compound 229] | 0.13 | > 10 | 129
7 | Cc1cn(-c2ccc3n(c2=O)C[C@@H](C)N(Cc2cc(Cl)cc(Cl)c2)C3=O)cn1 [compound 131] | 0.2 | > 10 | 170.7
8 | Cc1ncn(-c2ccc3n(c2=O)CCN(Cc2cccc(C(F)(F)F)c2)C3=O)n1 [compound 120] | 6.17 | > 10 | 194.9
9 | Cc1cn(-c2ccc3n(c2=O)C[C@@H](C)N(Cc2cccc(Cl)c2F)C3=O)cn1 [compound 35] | 1.02 | > 10 | 182.2
10 | Cc1cn(-c2ccc3n(c2=O)CCN(Cc2ccc(OC(F)(F)F)cc2C)C3=O)cn1 [compound 75] | 0.98 | > 10 | 214.1
11 | Cc1cn(-c2ccc3n(c2=O)C[C@@H](C)N(Cc2cc(C(F)(F)F)ccc2F)C3=O)cn1 [compound 70] | 0.58 | > 10 | 108.5
12 | Cc1cn(-c2c(Br)cc3n(c2=O)C[C@@H](C)N(Cc2cc(C(F)(F)F)cc(C(F)(F)F)c2)C3=O)cn1 [compound 157] | 2.04 | 8.71 | 147.7
13 | Cc1cn(-c2ccc3n(c2=O)CCN(Cc2ccc(F)cc2C)C3=O)cn1 [compound 73] | 2.57 | > 10 | 227.4
14 | Cc1cn(-c2ccc3n(c2=O)CC(C)N(C(C)c2cn(C)c4c(F)cc(Cl)cc24)C3=O)cn1 (single isomer, unassigned) [compound 223] | 0.22 | 6.61 | 243
15 | Cc1cn(-c2ccc3n(c2=O)CCN(C(C)c2cccc(Cl)c2Cl)C3=O)cn1 (single isomer, unassigned) [10b] | 6.61 | > 10 | 206.4
16 | Cc1cn(-c2ccc3n(c2=O)C[C@@H](C)N(C(C)c2cc(Cl)cc(Cl)c2)C3=O)cn1 (single isomer, unassigned) [compound 211] | 0.09 | > 10 | 146
17 | Cc1cn(-c2ccc3n(c2=O)CCN(Cc2cccc(C(F)(F)F)c2C)C3=O)cn1 [compound 58] | 0.83 | > 10 | 199.4
18 | COc1ccc(CN2C(=O)c3ccc(-n4cnc(C)c4)c(=O)n3C[C@H]2C)cc1C(F)(F)F [compound 67] | 0.56 | > 10 | 140.2
19 | Cc1cn(-c2ccc3n(c2=O)CCN(Cc2cn(C)c4cc(Cl)c(Cl)cc24)C3=O)cn1 [compound 254] | 0.02 | 6 | 217
20 | Cc1cn(-c2ccc3n(c2=O)CC(C)N(C(C)c2cn(C)c4cc(F)c(Cl)cc24)C3=O)cn1 (single isomer, unassigned) [compound 190] | 0.01 | 3.31 | 255

Row | SMILES | IC50 [1] [µM] | IC50 [2] [µM] | melting point [°C]
21 | Cc1cn(-c2ccc3n(c2=O)CCN(Cc2cccc(N4CCCCC4)c2C)C3=O)cn1 [compound 97] | 0.44 | > 10 | 207.8
22 | Cc1cn(-c2cc(Cl)c3n(c2=O)CCN(Cc2cccc(-c4ccccc4)c2)C3=O)cn1 [compound 88] | 1.86 | > 10 | 136.5
23 | Cc1cn(-c2ccc3n(c2=O)CCN(Cc2ccccc2N2CCCCC2)C3=O)cn1 [compound 100] | 0.76 | > 10 | 167.4
24 | Cc1cn(-c2ccc3n(c2=O)C[C@@H](C)N(Cc2cn(C)c4cc(Cl)c(Cl)cc24)C3=O)cn1 [compound 255] | 0.01 | 3 | 265
25 | Cc1cn(-c2ccc3n(c2=O)CCN(C(C)c2cn(C)c4cc(F)c(Cl)cc24)C3=O)cn1 (single isomer, unassigned) [compound 186] | 0.78 | > 10 | 261
26 | Cc1cn(-c2ccc3n(c2=O)CCN(C2CCc4c2cccc4C(F)(F)F)C3=O)cn1 (stereo not drawn) [compound 105] | 2.82 | > 10 | 253.5
27 | Cc1cn(-c2ccc3n(c2=O)CCN(c2ccccc2C)C3=O)cn1 [compound 102] | > 10 | > 10 | 222.2
28 | Cc1cn(-c2ccc3n(c2=O)CCN(Cc2cccc(C4CC4)c2)C3=O)cn1 [compound 101] | 0.74 | > 10 | 121.5
29 | Cc1cn(-c2ccc3n(c2=O)CCN(CC2(c4ccc(Cl)cc4)CC2)C3=O)cn1 [compound 29] | 0.27 | > 10 | 227.1
30 | COc1cc(CN2C(=O)c3ccc(-n4cnc(C)c4)c(=O)n3C[C@H]2C)cc(C(F)(F)F)c1 [compound 68] | 0.19 | > 10 | 132.4
31 | Cc1cn(-c2ccc3n(c2=O)CCN(C(C)c2cc(Cl)cc(Cl)c2)C3=O)cn1 (single isomer, unassigned) [compound 208] | 3.89 | > 10 | 206
32 | Cc1ncn(-c2ccc3n(c2=O)CC(C)N(Cc2cc(C(F)(F)F)cc(C(F)(F)F)c2)C3=O)n1 (stereo not drawn) [compound 155] | 0.51 | > 10 | 160.9
33 | Cc1cn(-c2ccc3n(c2=O)C[C@@H](C)N(Cc2cn(C)c4cc(C(F)(F)F)ccc24)C3=O)cn1 [compound 228] | 0.05 | > 10 | 161
34 | Cc1cn(-c2ccc3n(c2=O)CCN(CCC2CCCCC2)C3=O)cn1 [compound 18] | 1.7 | > 10 | 192.6
35 | Cc1cn(-c2ccc3n(c2=O)CCN(C(C)Cc2cc(C(F)(F)F)cc(C(F)(F)F)c2)C3=O)cn1 (stereo not drawn) [compound 172] | 0.25 | > 10 | 182.3
36 | Cc1cn(-c2ccc3n(c2=O)CCN(C2CCCc4c2cccc4C(F)(F)F)C3=O)cn1 (stereo not drawn) [compound 107] | 2.45 | > 10 | 257.3
37 | Cc1cn(-c2ccc3n(c2=O)CCN(c2cccc(C(F)(F)F)c2F)C3=O)cn1 [compound 55] | 3.8 | > 10 | 227.5
38 | CCn1cc(C(C)N2C(=O)c3ccc(-n4cnc(C)c4)c(=O)n3CC2C)c2cc(Cl)cc(F)c21 (single isomer, unassigned) [compound 221] | 0.005 | 0.79 | 194
39 | Cc1cn(-c2ccc3n(c2=O)CCN(C(C)c2cccc(C(F)(F)F)c2)C3=O)cn1 (single isomer, unassigned) [11b] | 7.76 | > 10 | 181
40 | Cc1cn(-c2ccc3n(c2=O)C[C@@H](C)N(Cc2ccc4c(c2)OC(F)(F)O4)C3=O)cn1 [compound 113] | 0.4 | > 10 | 136.1
